Patent publication US11759455B2, “Substituted 1H-imidazo[4,5-b]pyridin-2(3H)-ones and their use as GLUN2B receptor modulators” (JANSSEN PHARMACEUTICA NV, priority 2016, dated 2023)
Where two headings read alike, the source gives them in different places.

Target: T1, human GluN1/GluN2B NMDA receptors (Homo sapiens, UniProt Q13224)
T1 construct: expressed in transfected cells
Assay: Cell-based calcium flux (FLIPR) assay on cloned human NR1/NR2B ion channels expressed in mammalian cells (standard and HTS buffer variants);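 note: stable Tet-On inducible cell line, Ca2+ influx triggered by glutamate at about EC40 plus 10 µM glycine, fluorescent dye read-out over 5 min, normalized to control wells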
Settings: read-out: NR2B IC50 (μM) standard assay

[1] = standard assay buffer (0.5 mM MgCl2 dye loading; 137 mM NaCl, 4 mM KCl assay buffer), human GluN1/GluN2B cells
[2] = standard assay buffer (0.5 mM MgCl2 in dye loading buffer; 137 mM NaCl, 4 mM KCl in assay buffer), human GluN1/GluN2B

T1 sequence (Q13224 27-1484, other chains not shown): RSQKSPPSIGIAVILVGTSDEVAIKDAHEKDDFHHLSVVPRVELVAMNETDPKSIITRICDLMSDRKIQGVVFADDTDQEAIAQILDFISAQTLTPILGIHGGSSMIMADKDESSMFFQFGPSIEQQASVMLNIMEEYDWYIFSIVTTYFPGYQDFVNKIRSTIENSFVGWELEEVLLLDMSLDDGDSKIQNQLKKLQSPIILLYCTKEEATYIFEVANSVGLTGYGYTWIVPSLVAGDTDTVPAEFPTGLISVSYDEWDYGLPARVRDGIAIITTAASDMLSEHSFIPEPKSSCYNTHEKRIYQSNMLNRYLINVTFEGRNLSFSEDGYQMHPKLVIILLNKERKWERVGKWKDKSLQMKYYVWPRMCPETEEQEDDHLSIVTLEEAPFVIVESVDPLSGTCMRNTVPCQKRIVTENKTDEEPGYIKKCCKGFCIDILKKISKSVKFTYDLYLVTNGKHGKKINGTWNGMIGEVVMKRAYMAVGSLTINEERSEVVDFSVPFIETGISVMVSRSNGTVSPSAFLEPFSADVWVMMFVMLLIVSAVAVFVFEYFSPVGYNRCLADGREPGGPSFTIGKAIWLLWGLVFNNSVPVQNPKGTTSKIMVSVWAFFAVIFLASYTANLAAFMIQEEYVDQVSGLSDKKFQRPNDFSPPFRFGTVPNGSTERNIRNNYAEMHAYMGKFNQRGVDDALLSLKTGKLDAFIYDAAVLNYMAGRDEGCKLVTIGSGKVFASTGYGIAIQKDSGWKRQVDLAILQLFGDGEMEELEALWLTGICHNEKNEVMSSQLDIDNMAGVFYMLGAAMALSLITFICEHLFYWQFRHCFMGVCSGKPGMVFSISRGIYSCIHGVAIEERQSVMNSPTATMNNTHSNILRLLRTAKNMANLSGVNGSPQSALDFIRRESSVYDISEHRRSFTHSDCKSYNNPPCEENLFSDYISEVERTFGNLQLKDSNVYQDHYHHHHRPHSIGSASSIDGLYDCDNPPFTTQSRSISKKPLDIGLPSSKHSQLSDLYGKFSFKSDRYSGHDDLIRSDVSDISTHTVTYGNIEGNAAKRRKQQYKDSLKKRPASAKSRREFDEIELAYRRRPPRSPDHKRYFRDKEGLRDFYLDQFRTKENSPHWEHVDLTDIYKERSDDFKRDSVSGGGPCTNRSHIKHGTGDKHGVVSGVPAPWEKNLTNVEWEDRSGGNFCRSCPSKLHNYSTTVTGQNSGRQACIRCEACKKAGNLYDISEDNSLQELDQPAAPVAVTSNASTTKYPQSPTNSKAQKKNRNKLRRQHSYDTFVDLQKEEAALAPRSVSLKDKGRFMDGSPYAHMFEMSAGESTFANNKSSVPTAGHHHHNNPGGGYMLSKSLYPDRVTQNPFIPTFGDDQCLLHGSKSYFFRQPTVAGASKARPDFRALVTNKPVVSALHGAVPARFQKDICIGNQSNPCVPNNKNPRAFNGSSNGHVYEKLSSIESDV

IC50 [1] [µM]	IC50 [2] [µM]	Compound
0.316	–	Cc1cncc(Cn2c(=O)[nH]c3ncc(-c4ccc(F)c(C(F)(F)F)c4)cc32)c1 [Example 309, 6-[4-Fluoro-3-(trifluoromethyl)phenyl]-1-[(5-methyl-3-pyridyl)methyl]-3H-imidazo[4,5-b]pyridin-2-one]
0.002	–	Cc1ccncc1Cn1c(=O)[nH]c2ncc(-c3cc(F)c(F)c(F)c3)cc21 [Example 312, 1-[(4-Methyl-3-pyridyl)methyl]-6-(3,4,5-trifluorophenyl)-3H-imidazo[4,5-b]pyridin-2-one]
0.018	–	Cc1ccncc1Cn1c(=O)[nH]c2ncc(-c3cccc(C(F)(F)F)c3)cc21 [Example 313, 1-[(4-Methyl-3-pyridyl)methyl]-6-[3-b]pyridin-2-one]
0.049	–	Cc1ccncc1Cn1c(=O)[nH]c2ncc(-c3ccc(F)c(C(F)(F)F)c3)cc21 [Example 314, 6-[4-Fluoro-3-(trifluoromethyl)phenyl]-1-[(4-methyl-3-pyridyl)methyl]-3H-imidazo[4,5-b]pyridin-2-one]
> 10	–	Cc1cccnc1Cn1c(=O)[nH]c2ncc(-c3cccc(C(F)(F)F)c3)cc21 [Example 315, 1-[(3-Methyl-2-pyridyl)methyl]-6-[3-(trifluoromethyl)phenyl]-3H-imidazo[4,5-b]pyridin-2-one]
0.114	–	Cc1cc(-c2cnc3[nH]c(=O)n(Cc4ncccc4C)c3c2)ccc1F [Example 316, 6-(4-Fluoro-3-methyl-phenyl)-1-[(3-methyl-2-pyridyl)methyl]-3H-imidazo[4,5-b]pyridin-2-one]
–	> 10	Cc1cccnc1Cn1c(=O)[nH]c2ncc(-c3cc(F)cc(F)c3)cc21 [Example 318, 6-(3,5-Difluorophenyl)-1-[(3-methyl-2-pyridyl)methyl]-3H-imidazo[4,5-b]pyridin-2-one]
–	> 10	Cc1cccnc1Cn1c(=O)[nH]c2ncc(-c3cccc(F)c3F)cc21 [Example 319, 6-(2,3-Difluorophenyl)-1-[(3-methyl-2-pyridyl)methyl]-3H-imidazo[4,5-b]pyridin-2-one]
–	0.014	Cc1cc(-c2cnc3[nH]c(=O)n(CC(=O)N(C)C)c3c2)sc1Cl [Example 321, 2-[6-(5-Chloro-4-methyl-2-thienyl)-2-oxo-3H-imidazo[4,5-b]pyridin-1-yl]-N,N-dimethyl-acetamide]
–	0.023	Cc1cc(-c2cnc3c(c2)n(CC(=O)N(C)C)c(=O)n3C)sc1Cl [Example 322, 2-[6-(5-Chloro-4-methyl-2-thienyl)-3-methyl-2-oxo-imidazo[4,5-b]pyridin-1-yl]-N,N-dimethyl-acetamide]
–	0.079	Cn1c(=O)n(CC(=O)N2CCCC2)c2cc(-c3ccc(C(F)(F)F)s3)cnc21 [Example 328, 3-Methyl-1-(2-oxo-2-pyrrolidin-1-yl-ethyl)-6-[5-(trifluoromethyl)-2-thienyl]imidazo[4,5-b]pyridin-2-one]
–	0.004	CCC(=O)Cn1c(=O)[nH]c2ncc(-c3ccc(F)c(F)c3)cc21 [Example 330, 6-(3,4-Difluorophenyl)-1-(2-oxobutyl)-3H-imidazo[4,5-b]pyridin-2-one]
–	0.012	CCC(=O)Cn1c(=O)[nH]c2ncc(-c3ccc(F)c(C)c3)cc21 [Example 331, 6-(4-Fluoro-3-methyl-phenyl)-1-(2-oxobutyl)-3H-imidazo[4,5-b]pyridin-2-one]
–	0.034	Cc1c(F)ccc(-c2cnc3c(c2)n(Cc2cccnc2)c(=O)n3C)c1F [Example 339, 6-(2,4-Difluoro-3-methyl-phenyl)-3-methyl-1-(3-pyridylmethyl)imidazo[4,5-b]pyridin-2-one]
–	0.052	Cc1cc(-c2cnc3c(c2)n(Cc2cncc(F)c2)c(=O)n3C)ccc1F [Example 340, 6-(4-Fluoro-3-methyl-phenyl)-1-[(5-fluoro-3-pyridyl)methyl]-3-methyl-imidazo[4,5-b]pyridin-2-one]
–	0.138	Cn1c(=O)n(Cc2cncc(F)c2)c2cc(-c3cccc(OC(F)F)c3)cnc21 [Example 342, 6-[3-(Difluoromethoxy)phenyl]-1-[(5-fluoro-3-pyridyl)methyl]-3-methyl-imidazo[4,5-b]pyridin-2-one]
–	0.256	Cn1c(=O)n(Cc2cncc(F)c2)c2cc(-c3ccc(F)c(F)c3)cnc21 [Example 343, 6-(3,4-Difluorophenyl)-1-[(5-fluoro-3-pyridyl)methyl]-3-methyl-imidazo[4,5-b]pyridin-2-one]
–	0.518	Cn1c(=O)n(Cc2cncc(F)c2)c2cc(-c3cc(F)c(F)c(F)c3)cnc21 [Example 344, 1-[(5-Fluoro-3-pyridyl)methyl]-3-methyl-6-(3,4,5-trifluorophenyl)imidazo[4,5-b]pyridin-2-one]
–	0.621	Cn1c(=O)n(Cc2cncc(F)c2)c2cc(-c3ccc(F)c(F)c3F)cnc21 [Example 347, 1-[(5-Fluoro-3-pyridyl)methyl]-3-methyl-6-(2,3,4-trifluorophenyl)imidazo[4,5-b]pyridin-2-one]
–	0.213	Cn1c(=O)n(Cc2cncc(F)c2)c2cc(-c3cccc(Cl)c3)cnc21 [Example 348, 6-(3-Chlorophenyl)-1-[(5-fluoro-3-pyridyl)methyl]-3-methyl-imidazo[4,5-b]pyridin-2-one]
–	0.029	Cc1cccc(-c2cnc3c(c2)n(Cc2cncc(F)c2)c(=O)n3C)c1 [Example 350, 1-[(5-Fluoro-3-pyridyl)methyl]-3-methyl-6-(m-tolyl)imidazo[4,5-b]pyridin-2-one]
–	0.251	Cn1c(=O)n(Cc2cncc(F)c2)c2cc(-c3ccc(Cl)c(Cl)c3)cnc21 [Example 351, 6-(3,4-Dichlorophenyl)-1-[(5-fluoro-3-pyridyl)methyl]-3-methyl-imidazo[4,5-b]pyridin-2-one]
–	0.144	Cn1c(=O)n(Cc2cccnc2)c2cc(-c3cc(F)c(F)c(F)c3)cnc21 [Example 353, 3-Methyl-1-(3-pyridylmethyl)-6-(3,4,5-trifluorophenyl)imidazo[4,5-b]pyridin-2-one]

Further lines, the compound ahead of its results:

Compound	IC50 [1] [µM]	IC50 [2] [µM]
Cc1cncc(Cn2c(=O)[nH]c3ncc(-c4cccc(F)c4F)cc32)c1 [Example 310, 6-(2,3-Difluorophenyl)-1-[(5-methyl-3-pyridyl)methyl]-3H-imidazo[4,5-b]pyridin-2-one]	0.088	–
Cc1cncc(Cn2c(=O)[nH]c3ncc(-c4cc(F)cc(F)c4)cc32)c1 [Example 311, 6-(3,5-Difluorophenyl)-1-[(5-methyl-3-pyridyl)methyl]-3H-imidazo[4,5-b]pyridin-2-one]	0.028	–
Cc1cccnc1Cn1c(=O)[nH]c2ncc(-c3ccc(F)c(C)c3F)cc21 [Example 317, 6-(2,4-Difluoro-3-methyl-phenyl)-1-[(3-methyl-2-pyridyl)methyl]-3H-imidazo[4,5-b]pyridin-2-one]	–	0.046
Cc1cc(F)ccc1-c1cnc2[nH]c(=O)n(CC(=O)N3CCC3)c2c1 [Example 320, 1-[2-(Azetidin-1-yl)-2-oxo-ethyl]-6-(4-fluoro-2-methyl-phenyl)-3H-imidazo[4,5-b]pyridin-2-one]	–	0.075
O=C(Cn1c(=O)[nH]c2ncc(-c3ccc(C(F)(F)F)s3)cc21)N1CCC1 [Example 323, 1-[2-(azetidin-1-yl)-2-oxo-ethyl]-6-[5-(trifluoromethyl)-2-thienyl]-3H-imidazo[4,5-b]pyridin-2-one]	–	0.041
Cc1cc(-c2cnc3[nH]c(=O)n(CC(=O)N4CCC4)c3c2)sc1Cl [Example 324, 1-[2-(Azetidin-1-yl)-2-oxo-ethyl]-6-(5-chloro-4-methyl-2-thienyl)-3H-imidazo[4,5-b]pyridin-2-one]	–	0.015
Cc1ccc(-c2cnc3c(c2)n(CC(=O)N2CCC2)c(=O)n3C)s1 [Example 326, 1-[2-(Azetidin-1-yl)-2-oxo-ethyl]-3-methyl-6-(5-methyl-2-thienyl)imidazo[4,5-b]pyridin-2-one]	–	0.022
Cn1c(=O)n(CC(=O)N2CC(F)C2)c2cc(-c3ccc(C(F)(F)F)s3)cnc21 [Example 327, 1-[2-(3-Fluoroazetidin-1-yl)-2-oxo-ethyl]-3-methyl-6-[5-(trifluoromethyl)-2-thienyl]imidazo[4,5-b]pyridin-2-one]	–	0.071
Cc1c(-c2cnc3[nH]c(=O)n(CC(=O)N4CCC4)c3c2)cccc1C(F)(F)F [Example 329, 1-[2-(Azetidin-1-yl)-2-oxo-ethyl]-6-[2-methyl-3-(trifluoromethyl)phenyl]-3H-imidazo[4,5-b]pyridin-2-one]	–	0.75
CCC(=O)Cn1c(=O)[nH]c2ncc(-c3cccc(C)c3)cc21 [Example 332, 6-(m-Tolyl)-1-(2-oxobutyl)-3H-imidazo[4,5-b]pyridin-2-one]	–	0.036
Cc1c(F)ccc(-c2cnc3c(c2)n(Cc2cncc(F)c2)c(=O)n3C)c1F [Example 341, 6-(2,4-Difluoro-3-methyl-phenyl)-1-[(5-fluoro-3-pyridyl)methyl]-3-methyl-imidazo[4,5-b]pyridin-2-one]	–	0.081
Cn1c(=O)n(Cc2cncc(F)c2)c2cc(-c3cccc(OC(F)(F)F)c3)cnc21 [Example 345, 1-[(5-Fluoro-3-pyridyl)methyl]-3-methyl-6-[3-(trifluoromethoxy)phenyl]imidazo[4,5-b]pyridin-2-one]	–	0.778
Cn1c(=O)n(Cc2cncc(F)c2)c2cc(-c3cccc(F)c3F)cnc21 [Example 346, 6-(2,3-Difluorophenyl)-1-[(5-fluoro-3-pyridyl)methyl]-3-methyl-imidazo[4,5-b]pyridin-2-one]	–	0.225
Cn1c(=O)n(Cc2cncc(F)c2)c2cc(-c3cccc(Cl)c3F)cnc21 [Example 349, 6-(3-Chloro-2-fluoro-phenyl)-1-[(5-fluoro-3-pyridyl)methyl]-3-methyl-imidazo[4,5-b]pyridin-2-one]	–	0.107
Cc1cccc(-c2cnc3c(c2)n(Cc2cncc(F)c2)c(=O)n3C)c1F [Example 352, 6-(2-Fluoro-3-methyl-phenyl)-1-[(5-fluoro-3-pyridyl)methyl]-3-methyl-imidazo[4,5-b]pyridin-2-one]	–	0.052
Cn1c(=O)n(Cc2cccnc2)c2cc(-c3cc(F)cc(F)c3)cnc21 [Example 354, 6-(3,5-Difluorophenyl)-3-methyl-1-(3-pyridylmethyl)imidazo[4,5-b]pyridin-2-one]	–	1.03
